According to publication PMC6886798, “Expression of myeloid Src-family kinases is associated with poor prognosis in AML and influences Flt3-ITD kinase inhibitor acquired resistance” (PLoS ONE, 2019):

Assays:
Assay in all cases: KINOMEscan
Format in all cases: binding
Settings in all cases: 1.0 µM
STK39 = biological target: T1, STK39 (Homo sapiens, UniProt Q9UEW8)
T1 construct: purchased Eurofins/DiscoverX KINOMEscan scanMAX
Experimental: (§1) Kinase retention to the immobilized ligand is then measured using quantitative real-time PCR for each kinase-specific DNA barcode.

BMPR1B = biological target: T2, BMPR1B (Homo sapiens, UniProt O00238)
T2 construct: purchased Eurofins/DiscoverX KINOMEscan scanMAX
Experimental: as §1

SGK3 = biological target: T3, SGK3 (Homo sapiens, UniProt Q96BR1)
T3 construct: purchased Eurofins/DiscoverX KINOMEscan scanMAX
Experimental: as §1

TTK = biological target: T4, TTK (Homo sapiens, UniProt P33981)
T4 construct: DNA tag (qPCR barcode); purchased Eurofins/DiscoverX KINOMEscan scanMAX
Experimental: as §1

MAPKAPK5 = biological target: T5, MAPKAPK5 (Homo sapiens, UniProt Q8IW41)
T5 construct: purchased Eurofins/DiscoverX KINOMEscan scanMAX
Experimental: as §1

p38-alpha = biological target: T6, p38-alpha (Homo sapiens, UniProt Q16539)
T6 construct: purchased Eurofins/DiscoverX KINOMEscan scanMAX
T6 sequence (Q16539 whole entry): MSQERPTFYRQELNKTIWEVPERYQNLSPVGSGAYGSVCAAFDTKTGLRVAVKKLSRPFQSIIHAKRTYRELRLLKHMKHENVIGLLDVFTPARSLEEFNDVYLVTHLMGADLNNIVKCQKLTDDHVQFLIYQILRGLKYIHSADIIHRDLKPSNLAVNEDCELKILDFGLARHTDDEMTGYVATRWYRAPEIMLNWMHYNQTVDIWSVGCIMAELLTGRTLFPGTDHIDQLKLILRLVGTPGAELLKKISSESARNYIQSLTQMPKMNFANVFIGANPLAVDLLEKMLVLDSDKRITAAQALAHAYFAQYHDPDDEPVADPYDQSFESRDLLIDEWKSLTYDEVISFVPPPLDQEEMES
Experimental: as §1

YANK2 = biological target: T7, YANK2 (Homo sapiens, UniProt Q9NY57)
T7 construct: purchased Eurofins/DiscoverX (KINOMEscan scanMAX service)
Experimental: as §1

ASK1 = biological target: T8, ASK1 (Homo sapiens, UniProt Q99683)
T8 construct: purchased Eurofins/DiscoverX KINOMEscan scanMAX
Experimental: as §1

TIE1 = biological target: T9, TIE1 (Homo sapiens, UniProt P35590)
T9 construct: purchased Eurofins/DiscoverX KINOMEscan scanMAX
Experimental: as §1

MARK3 = biological target: T10, MARK3 (Homo sapiens, UniProt P27448)
T10 construct: purchased Eurofins/DiscoverX KINOMEscan scanMAX
Experimental: as §1

PIK3CA(H1047L) = biological target: T11, PIK3CA(H1047L) (Homo sapiens, UniProt P42336, H1047L)
T11 construct: purchased Eurofins/DiscoverX KINOMEscan scanMAX
Experimental: as §1

NEK4 = biological target: T12, NEK4 (Homo sapiens, UniProt P51957)
T12 construct: purchased Eurofins/DiscoverX KINOMEscan scanMAX
Experimental: as §1

MAP3K2 = biological target: T13, MAP3K2 (Homo sapiens, UniProt Q9Y2U5)
T13 construct: purchased Eurofins/DiscoverX KINOMEscan scanMAX
Experimental: as §1

KIT(D816V) = biological target: T14, KIT(D816V) (Homo sapiens, UniProt P10721, D816V)
T14 construct: purchased Eurofins/DiscoverX KINOMEscan scanMAX
Experimental: as §1

CDC2L2 = biological target: T15, CDC2L2 (Homo sapiens, UniProt Q9UQ88)
T15 construct: purchased Eurofins/DiscoverX KINOMEscan scanMAX
Experimental: as §1

CAMK1G = biological target: T16, CAMK1G (Homo sapiens, UniProt Q96NX5)
T16 construct: purchased Eurofins/DiscoverX KINOMEscan scanMAX
Experimental: as §1

ERK1 = biological target: T17, ERK1 (Homo sapiens, UniProt P27361)
T17 construct: purchased Eurofins/DiscoverX KINOMEscan scanMAX
Experimental: as §1

YANK1 = biological target: T18, YANK1 (Homo sapiens, UniProt Q8WU08)
T18 construct: DNA tag (qPCR barcode); purchased Eurofins/DiscoverX KINOMEscan scanMAX
Experimental: as §1

CSNK1G3 = biological target: T19, CSNK1G3 (Homo sapiens, UniProt Q9Y6M4)
T19 construct: purchased Eurofins/DiscoverX KINOMEscan scanMAX
Experimental: as §1

MKNK1 = biological target: T20, MKNK1 (Homo sapiens, UniProt Q9BUB5)
T20 construct: purchased Eurofins/DiscoverX KINOMEscan scanMAX
Experimental: as §1

EPHA2 = biological target: T21, EPHA2 (Homo sapiens, UniProt P29317)
T21 construct: purchased Eurofins/DiscoverX KINOMEscan scanMAX
Experimental: as §1

FGR = biological target: T22, FGR (Homo sapiens, UniProt P09769)
T22 construct: purchased Eurofins/DiscoverX KINOMEscan scanMAX
Experimental: as §1

CSNK1E = biological target: T23, CSNK1E (Homo sapiens, UniProt P49674)
T23 construct: purchased Eurofins/DiscoverX KINOMEscan scanMAX
T23 sequence (P49674 whole entry): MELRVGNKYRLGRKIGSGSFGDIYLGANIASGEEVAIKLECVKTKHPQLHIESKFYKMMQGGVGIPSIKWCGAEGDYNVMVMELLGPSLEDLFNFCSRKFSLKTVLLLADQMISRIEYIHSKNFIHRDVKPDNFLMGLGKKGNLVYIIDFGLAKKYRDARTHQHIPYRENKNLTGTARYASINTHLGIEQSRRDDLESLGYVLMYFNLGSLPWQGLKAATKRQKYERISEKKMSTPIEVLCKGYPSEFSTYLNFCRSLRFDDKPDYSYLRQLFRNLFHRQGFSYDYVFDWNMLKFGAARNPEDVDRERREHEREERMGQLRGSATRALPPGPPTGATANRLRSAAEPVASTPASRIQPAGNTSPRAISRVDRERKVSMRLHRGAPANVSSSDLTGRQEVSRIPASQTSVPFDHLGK
Experimental: as §1

LIMK2 = biological target: T24, LIMK2 (Homo sapiens, UniProt P53671)
T24 construct: purchased Eurofins/DiscoverX KINOMEscan scanMAX
Experimental: as §1

ALK(C1156Y) = biological target: T25, ALK(C1156Y) (Homo sapiens, UniProt Q9UM73, C1156Y)
T25 construct: purchased Eurofins/DiscoverX KINOMEscan scanMAX
Experimental: as §1

PRKG2 = biological target: T26, PRKG2 (Homo sapiens, UniProt Q13237)
T26 construct: purchased Eurofins/DiscoverX KINOMEscan scanMAX
Experimental: as §1

YSK1 = biological target: T27, YSK1 (Homo sapiens, UniProt O00506)
T27 construct: purchased Eurofins/DiscoverX (KINOMEscan scanMAX service)
Experimental: as §1

FLT3(K663Q) = biological target: T28, FLT3(K663Q) (Homo sapiens, UniProt P36888, K663Q)
T28 construct: purchased Eurofins/DiscoverX KINOMEscan scanMAX
Experimental: as §1

PRKR = biological target: T29, PRKR (Homo sapiens, UniProt P19525)
T29 construct: purchased Eurofins/DiscoverX KINOMEscan scanMAX
Experimental: as §1

RET(M918T) = biological target: T30, RET(M918T) (Homo sapiens, UniProt P07949, M918T)
T30 construct: purchased Eurofins/DiscoverX KINOMEscan scanMAX
Experimental: as §1

PKAC-beta = biological target: T31, PKAC-beta (Homo sapiens, UniProt P22694)
T31 construct: purchased Eurofins/DiscoverX KINOMEscan scanMAX
Experimental: as §1

ALK(L1196M) = biological target: T32, ALK(L1196M) (Homo sapiens, UniProt Q9UM73, L1196M)
T32 construct: purchased Eurofins/DiscoverX KINOMEscan scanMAX
T32 sequence (Q9UM73 19-1620 L1196M): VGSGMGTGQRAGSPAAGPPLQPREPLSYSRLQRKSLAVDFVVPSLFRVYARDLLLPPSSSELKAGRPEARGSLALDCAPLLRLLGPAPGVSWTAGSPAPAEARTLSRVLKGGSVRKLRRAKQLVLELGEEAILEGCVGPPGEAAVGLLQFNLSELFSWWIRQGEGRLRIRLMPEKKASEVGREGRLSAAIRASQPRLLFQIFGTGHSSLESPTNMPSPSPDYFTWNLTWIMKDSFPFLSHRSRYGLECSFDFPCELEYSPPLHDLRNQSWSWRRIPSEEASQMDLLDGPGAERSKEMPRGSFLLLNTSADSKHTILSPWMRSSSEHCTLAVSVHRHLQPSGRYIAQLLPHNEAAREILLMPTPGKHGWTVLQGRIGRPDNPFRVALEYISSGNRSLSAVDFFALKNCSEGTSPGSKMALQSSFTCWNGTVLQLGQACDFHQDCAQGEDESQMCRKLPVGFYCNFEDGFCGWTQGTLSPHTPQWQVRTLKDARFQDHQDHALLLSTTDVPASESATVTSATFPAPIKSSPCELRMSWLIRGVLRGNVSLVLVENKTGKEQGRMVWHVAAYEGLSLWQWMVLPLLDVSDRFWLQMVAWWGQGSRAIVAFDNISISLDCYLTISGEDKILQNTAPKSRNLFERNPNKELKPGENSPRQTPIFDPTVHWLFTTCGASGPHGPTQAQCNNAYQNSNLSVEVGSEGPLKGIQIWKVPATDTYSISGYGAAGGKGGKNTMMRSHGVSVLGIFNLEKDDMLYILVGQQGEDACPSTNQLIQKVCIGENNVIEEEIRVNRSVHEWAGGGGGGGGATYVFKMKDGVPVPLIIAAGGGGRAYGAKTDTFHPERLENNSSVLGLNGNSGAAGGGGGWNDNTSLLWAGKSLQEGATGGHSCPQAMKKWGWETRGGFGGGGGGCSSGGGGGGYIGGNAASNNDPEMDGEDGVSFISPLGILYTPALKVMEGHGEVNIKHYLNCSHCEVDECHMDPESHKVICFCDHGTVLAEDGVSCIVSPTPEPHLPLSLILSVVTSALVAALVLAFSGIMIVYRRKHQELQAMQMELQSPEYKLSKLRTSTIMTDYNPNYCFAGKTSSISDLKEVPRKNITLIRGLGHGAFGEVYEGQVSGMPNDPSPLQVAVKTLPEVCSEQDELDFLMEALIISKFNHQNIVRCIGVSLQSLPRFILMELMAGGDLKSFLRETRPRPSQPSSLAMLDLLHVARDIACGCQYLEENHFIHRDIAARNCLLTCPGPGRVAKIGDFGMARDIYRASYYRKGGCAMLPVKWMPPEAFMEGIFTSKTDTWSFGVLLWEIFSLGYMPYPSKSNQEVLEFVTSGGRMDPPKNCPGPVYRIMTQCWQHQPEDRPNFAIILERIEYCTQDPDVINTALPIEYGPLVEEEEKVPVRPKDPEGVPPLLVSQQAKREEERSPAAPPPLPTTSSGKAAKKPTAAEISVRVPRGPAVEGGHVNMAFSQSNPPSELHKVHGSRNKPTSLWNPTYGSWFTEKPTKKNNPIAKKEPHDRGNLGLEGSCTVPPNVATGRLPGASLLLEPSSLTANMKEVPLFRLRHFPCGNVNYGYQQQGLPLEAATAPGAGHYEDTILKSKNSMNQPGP
Experimental: as §1

EPHA6 = biological target: T33, EPHA6 (Homo sapiens, UniProt Q9UF33)
T33 construct: purchased Eurofins/DiscoverX KINOMEscan scanMAX
Experimental: as §1

ITK = biological target: T34, ITK (Homo sapiens, UniProt Q08881)
T34 construct: purchased Eurofins/DiscoverX KINOMEscan scanMAX
T34 sequence (Q08881 whole entry): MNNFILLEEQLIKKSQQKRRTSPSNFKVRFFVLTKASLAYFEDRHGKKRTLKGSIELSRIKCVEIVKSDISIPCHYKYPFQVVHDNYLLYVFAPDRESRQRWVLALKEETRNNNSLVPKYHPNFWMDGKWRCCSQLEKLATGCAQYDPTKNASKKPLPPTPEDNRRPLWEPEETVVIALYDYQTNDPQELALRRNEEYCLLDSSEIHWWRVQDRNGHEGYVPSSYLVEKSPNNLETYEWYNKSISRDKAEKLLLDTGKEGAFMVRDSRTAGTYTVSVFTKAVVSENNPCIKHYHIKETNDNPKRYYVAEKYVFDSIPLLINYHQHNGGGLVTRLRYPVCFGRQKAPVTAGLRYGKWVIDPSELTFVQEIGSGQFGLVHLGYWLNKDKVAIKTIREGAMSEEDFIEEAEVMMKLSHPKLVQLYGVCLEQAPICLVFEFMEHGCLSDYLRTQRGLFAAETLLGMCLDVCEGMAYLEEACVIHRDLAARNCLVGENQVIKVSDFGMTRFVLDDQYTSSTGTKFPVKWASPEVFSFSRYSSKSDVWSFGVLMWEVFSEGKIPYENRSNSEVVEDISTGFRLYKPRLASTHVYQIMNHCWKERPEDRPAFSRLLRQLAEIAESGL
Experimental: as §1

FGFR3(G697C) = biological target: T35, FGFR3(G697C) (Homo sapiens, UniProt P22607, G697C)
T35 construct: purchased Eurofins/DiscoverX KINOMEscan scanMAX
T35 sequence (P22607 23-806 G697C): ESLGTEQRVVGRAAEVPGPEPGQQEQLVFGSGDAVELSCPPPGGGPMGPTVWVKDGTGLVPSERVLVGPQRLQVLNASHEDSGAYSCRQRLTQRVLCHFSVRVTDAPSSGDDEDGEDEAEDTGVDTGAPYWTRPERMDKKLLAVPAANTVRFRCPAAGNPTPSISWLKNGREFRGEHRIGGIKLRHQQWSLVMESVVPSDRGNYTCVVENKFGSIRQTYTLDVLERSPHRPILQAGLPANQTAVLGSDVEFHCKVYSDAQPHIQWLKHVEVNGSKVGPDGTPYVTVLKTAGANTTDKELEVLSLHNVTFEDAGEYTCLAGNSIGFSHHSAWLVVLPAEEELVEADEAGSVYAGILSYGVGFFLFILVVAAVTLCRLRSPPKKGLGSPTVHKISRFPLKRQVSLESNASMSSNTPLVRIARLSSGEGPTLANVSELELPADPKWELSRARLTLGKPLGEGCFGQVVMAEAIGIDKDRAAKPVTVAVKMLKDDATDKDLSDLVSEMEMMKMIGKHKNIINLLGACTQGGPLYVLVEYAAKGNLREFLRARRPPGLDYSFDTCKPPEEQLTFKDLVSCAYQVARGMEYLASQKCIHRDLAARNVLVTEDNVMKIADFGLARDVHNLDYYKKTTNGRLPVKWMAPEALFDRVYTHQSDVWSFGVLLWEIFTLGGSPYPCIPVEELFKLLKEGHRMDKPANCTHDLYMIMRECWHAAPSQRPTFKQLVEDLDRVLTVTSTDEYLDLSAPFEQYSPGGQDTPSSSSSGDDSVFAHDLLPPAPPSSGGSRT
Experimental: as §1

CDK7 = biological target: T36, CDK7 (Homo sapiens, UniProt P50613)
T36 construct: purchased Eurofins/DiscoverX KINOMEscan scanMAX
Experimental: as §1

ANKK1 = biological target: T37, ANKK1 (Homo sapiens, UniProt Q8NFD2)
T37 construct: purchased Eurofins/DiscoverX KINOMEscan scanMAX
Experimental: as §1

ERBB4 = biological target: T38, ERBB4 (Homo sapiens, UniProt Q15303)
T38 construct: purchased Eurofins/DiscoverX KINOMEscan scanMAX
Experimental: as §1

IGF1R = biological target: T39, IGF1R (Homo sapiens, UniProt P08069)
T39 construct: purchased Eurofins/DiscoverX KINOMEscan scanMAX
Experimental: as §1

GAK = biological target: T40, GAK (Homo sapiens, UniProt O14976)
T40 construct: purchased Eurofins/DiscoverX KINOMEscan scanMAX
T40 sequence (O14976 whole entry): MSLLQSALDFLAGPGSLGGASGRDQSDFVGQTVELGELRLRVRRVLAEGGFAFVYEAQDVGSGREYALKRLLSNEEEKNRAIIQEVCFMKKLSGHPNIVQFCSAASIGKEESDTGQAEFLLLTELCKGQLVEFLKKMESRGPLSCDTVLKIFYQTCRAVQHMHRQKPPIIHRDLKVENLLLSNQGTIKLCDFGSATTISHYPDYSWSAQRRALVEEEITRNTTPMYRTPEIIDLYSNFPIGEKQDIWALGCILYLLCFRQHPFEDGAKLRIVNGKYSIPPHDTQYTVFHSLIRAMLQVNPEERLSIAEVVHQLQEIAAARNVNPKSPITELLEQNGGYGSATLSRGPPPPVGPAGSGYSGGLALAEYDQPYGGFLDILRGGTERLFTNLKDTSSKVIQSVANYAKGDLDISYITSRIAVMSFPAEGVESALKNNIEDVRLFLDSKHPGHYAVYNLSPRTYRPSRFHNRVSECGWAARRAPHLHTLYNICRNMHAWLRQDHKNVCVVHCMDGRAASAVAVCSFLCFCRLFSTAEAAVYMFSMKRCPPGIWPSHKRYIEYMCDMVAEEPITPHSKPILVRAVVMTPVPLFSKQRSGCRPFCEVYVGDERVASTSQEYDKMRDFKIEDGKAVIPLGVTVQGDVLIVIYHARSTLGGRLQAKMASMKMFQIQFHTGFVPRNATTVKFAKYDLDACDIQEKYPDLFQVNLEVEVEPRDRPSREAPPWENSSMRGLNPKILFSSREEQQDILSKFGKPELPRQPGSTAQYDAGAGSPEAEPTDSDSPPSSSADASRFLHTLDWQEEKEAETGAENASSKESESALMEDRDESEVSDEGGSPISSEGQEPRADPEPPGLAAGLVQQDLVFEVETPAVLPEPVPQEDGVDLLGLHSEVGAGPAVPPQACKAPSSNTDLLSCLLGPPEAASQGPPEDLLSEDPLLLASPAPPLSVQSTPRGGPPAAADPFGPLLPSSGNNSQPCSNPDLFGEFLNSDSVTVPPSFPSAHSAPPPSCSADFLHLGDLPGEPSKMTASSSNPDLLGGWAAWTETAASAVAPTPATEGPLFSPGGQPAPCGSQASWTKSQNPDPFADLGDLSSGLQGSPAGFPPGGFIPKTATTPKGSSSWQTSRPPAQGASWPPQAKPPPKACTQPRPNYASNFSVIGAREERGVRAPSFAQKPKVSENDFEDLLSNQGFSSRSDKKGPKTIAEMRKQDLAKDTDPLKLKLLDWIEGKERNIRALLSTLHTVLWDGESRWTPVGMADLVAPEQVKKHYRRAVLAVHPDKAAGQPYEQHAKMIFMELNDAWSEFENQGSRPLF
Experimental: as §1

RIOK1 = biological target: T41, RIOK1 (Homo sapiens, UniProt Q9BRS2)
T41 construct: purchased Eurofins/DiscoverX KINOMEscan scanMAX
Experimental: as §1

PCTK3 = biological target: T42, PCTK3 (Homo sapiens, UniProt Q07002)
T42 construct: purchased Eurofins/DiscoverX KINOMEscan scanMAX
Experimental: as §1

CN1CCN(C2CCC(n3cc(-c4ccc(Oc5ccccc5)cc4)c4c(N)ncnc43)CC2)CC1 (stereo not drawn) [A-419259]
% Control (STK39): 100%
% Control (BMPR1B): 92%
% Control (SGK3): 77%
% Control (TTK): 3.5%
% Control (MAPKAPK5): 100%
% Control (p38-alpha): 100%
% Control (YANK2): 30%
% Control (ASK1): 100%
% Control (TIE1): 25%
% Control (MARK3): 83%
% Control (PIK3CA(H1047L)): 98%
% Control (NEK4): 100%
% Control (MAP3K2): 1.7%
% Control (KIT(D816V)): 70%
% Control (CDC2L2): 91%
% Control (CAMK1G): 100%
% Control (ERK1): 100%
% Control (YANK1): 30%
% Control (CSNK1G3): 100%
% Control (MKNK1): 63%
% Control (EPHA2): 100%
% Control (FGR): 0.85%
% Control (CSNK1E): 1.1%
% Control (LIMK2): 91%
% Control (ALK(C1156Y)): 21%
% Control (PRKG2): 100%
% Control (YSK1): 84%
% Control (FLT3(K663Q)): 5.6%
% Control (PRKR): 100%
% Control (RET(M918T)): 0.1%
% Control (PKAC-beta): 100%
% Control (ALK(L1196M)): 68%
% Control (EPHA6): 94%
% Control (ITK): 14%
% Control (FGFR3(G697C)): 27%
% Control (CDK7): 28%
% Control (ANKK1): 73%
% Control (ERBB4): 0%
% Control (IGF1R): 80%
% Control (GAK): 69%
% Control (RIOK1): 77%
% Control (PCTK3): 100%
